Patent US9150887B2, “Ethanologenic bacteria with increased resistance to furfural” (UNIVERSITY OF FLORIDA RESEARCH FOUNDATION, INC., priority 2009, dated 2015)
Values after ≈ are worked out from the molar mass of the structure shown. “Also recorded” adds a separate entry of the source. Read-outs that look alike come from different tables or passages of the source.

Key:
[1] = tested on: EMFR9; assay: Effect of 5-HMF on anaerobic growth and fermentation; format: cell-based, Escherichia coli
Description: (§1) For fermentation experiments, seed cultures of LY180 and EMFR9 were grown overnight in small fermentors (37° C., 200 rpm) containing 350 ml of AM1 medium. Broth was maintained at pH 6.5 by the automatic addition of 2 N KOH. Upon reaching mid-log phase, experimental fermenters were inoculated to an initial cell density of 0.1 OD550 nm. (33 mg dry cell weight l^−1). Cell mass (OD550 nm) and furan levels were monitored at 12-h intervals as described previously (Martinez et al. 2000b Biotechnol Prog 16: 637-641).

[2] = tested on: LY180; assay: as above; format: cell-based, Escherichia coli; conditions: 1.0 g l^−1 5-HMF; 100 g l^−1 xylose
Description: as §1

[3] = tested on: LY180; assay: 5-HMF tolerance in tube cultures with cysteine supplement; format: cell-based, Escherichia coli
Description: Tolerance to 5-HMF was tested using 13×100 mm closed tubes containing 4 ml AM1 and 5-HMF as indicated. When appropriate, antibiotics were included for plasmid maintenance. Tubes were inoculated to an initial density of 0.05 OD550 nm. […] To examine the effects of pntAB on furan tolerance, a multiwall plate containing 400 μl of AM1 (and 5-HMF or furfural) per well was inoculated as above. OD(420-580 nm bandwidth) was measured for 72 h using a Bioscreen C growth analyzer (Oy Growth Curves, Helsinki, Finland).

[4] = tested on: yqhD promoter; assay: Luciferase reporter activity from the yqhD promoter in LY180; format: cell-based, Escherichia coli
Description: (§2) Cultures of E. coli carrying appropriate reporter plasmids were grown in AM1-5% xylose to OD 0.2-0.4. After addition of furfural, cells were pelleted, resuspended in Qiagen Qproteome bacterial lysis buffer, and stored at −80° C. The lysates were thawed at 37° C. for 2 minutes, and transferred to a white 96-well plate. An equal volume (50 uL) of PerkinElmer BriteLite reagent was added to each well, and the luminescence measured in a Promega Glomax 96-well luminometer.
(§3) Plasmid pLOI4900 was constructed by transferring the firefly luciferase gene into pBAD24 (Guzman et al. 1995 J. Bacteriol. 177: 4121-4130), and then replacing the araC gene and pBAD promoter regions with a 150-bp region upstream from the yqhD gene in LY180. This putative yqhD promoter region was PCR amplified using primers PCT6 and PCT7 (Table 2).
(§4) Cultures of E. coli carrying appropriate reporter plasmids were grown in AM1-50 g liter^−1 xylose to OD 0.4. After sampling the cultures, furfural was added, and incubation continued for 5, 15 or 30 min before sampling again. Untreated and furfural-treated cells were pelleted, resuspended in Qiagen Qproteome bacterial lysis buffer, and stored at −80° C. The lysates were thawed at 37° C. for 2 minutes, and transferred to a 96-well plate (white). An equal volume (50 μL) of PerkinElmer BriteLite reagent was added to each well. Luminescence was measured using a Promega Glomax 96-well luminometer.

[5] = tested on: yqhC, yqhD and dkgA transcripts in LY180; assay: Microarray analysis of transcripts after furfural addition; format: cell-based, Escherichia coli; conditions: 15 min after 0.5 g liter^−1 furfural
Description: For each strain, 4 replicate 350 ml cultures were grown to OD=[…] (0.66 g dcw liter^−1) and sampled. Furfural (0.5 g liter^−1) was added and samples were removed after 15 minutes of incubation. Culture samples were cooled in a dry ice/ethanol bath. Cells were pelleted at 4° C., resuspended in RNA Later (Qiagen), and stored at −80° C. Cell pellets from the 4 fermentors were pooled and used for RNA isolation (Qiagen RNeasy Mini Kit). RNA was treated with DNase, re-purified, and assessed for quality using an Agilent Bioanalyzer. RNA samples were submitted to Nimblegen for conversion to cDNA, labeling with Cy3, and hybridization to the E. coli K12 TI8333 microarray chip. This chip contains 385,000 60-mer probes derived from E. coli K12 strain MG1655, and has 5 replicates of each probe with an average of 18 probes per gene. Normalized expression data from Nimblegen was imported into ArrayStar (DNA Star) for analysis.

[6] = tested on: yqhD promoter; assay: Luciferase reporter activity from the yqhD promoter in LY180ΔyqhC; format: cell-based, Escherichia coli; conditions: yqhC deletion strain with pLOI4900; furfural addition
Description: as §2, §3
as §4, with “An equal volume (50 μL) of PerkinElmer BriteLite reagent was added to each well.” left out

[7] = tested on: yqhD promoter; assay: Luciferase reporter activity from the yqhD promoter in EMFR9; format: cell-based, Escherichia coli; conditions: EMFR9 with yqhD promoter reporter plasmid; furfural addition
Description: as §2, §4

[8] = tested on: EMFR9; assay: Furfural resistance and metabolism during pH-controlled fermentation; format: cell-based, Escherichia coli
Description: (§5) Furfural resistance was compared in small fermenters (37° C., 150 rpm, pH 6.5, 350-ml working volume) using AM1 medium (Martinez et al. 2007 Biotechnol. Lett. 29:397-404) containing 100 g liter^−1 xylose. Seed cultures were inoculated to approximately 33 mg dcw liter^−1. Samples were removed periodically to measure cell mass, ethanol, and furfural.

[9] = tested on: LY180; assay: as above; format: cell-based, Escherichia coli
Description: as §5

[10] = tested on: yqhD promoter; assay: Luciferase reporter activity from the yqhD promoter in EMFR17; format: cell-based, Escherichia coli; conditions: EMFR17 with pPyqhD-luc; furfural addition
Description: as §2

[11] = tested on: LY180; assay: Furfural reduction in vivo during fermentation; format: cell-based, Escherichia coli; conditions: furfural 0.5 g liter^−1
Description: (§6) Cultures grown to a cell density of […] in fleakers containing 350 mL AM1-10% xylose medium were sampled immediately before and 15, 30, and 60 minutes after addition of furfural to 0.5 g/L. The residual furfural concentration in the culture was determined after removal of bacterial cells by centrifugation. A spectrophotometric method was used, as described previously.
(§7) Cultures were grown to a cell density of 0.66 g dcw liter^−1 in fleakers containing 350 mL AM1-100 g liter^−1 xylose medium and sampled immediately before and 15, 30, and 60 minutes after addition of furfural (to 0.5 g liter^−1) as previously described (Miller et al. 2009 Appl. Environ. Microbiol. 75:4315-4323). Residual furfural was measured in the culture broth after centrifugation using a spectrophotometric method (Martinez et al. 2000 Biotechnol. Prog. 16: 637-641).

[12] = tested on: LY180ΔyqhC; assay: Furfural reduction in vivo during fermentation; format: cell-based, Escherichia coli; conditions: furfural 0.5 g liter^−1
Description: as §6, §7

[13] = tested on: EMFR9; assay: Furfural toxicity (MIC) in tube cultures; format: cell-based, Escherichia coli; conditions: for MIC: other compounds of hemicellulose hydrolysates, data not shown
Description: (§8) Cultures were inoculated to an initial density of 17 mg dcw liter^−1. Cell mass was measured after incubation at 37° C. for 24 h and 48 h.

[14] = tested on: LY180; assay: Furfural toxicity (MIC) in tube cultures; format: cell-based, Escherichia coli; conditions: for MIC: other compounds of hemicellulose hydrolysates, data not shown
Description: as §8

[15] = target: T1, DkgA (Escherichia coli, UniProt Q46857); conditions: Miller et al. 2009b; read-out: apparent Km for NADPH; cited from earlier work
T1 construct: For-[…]; His-tag (N); made in house; host or cells: E. coli BL21 (DE3)

[16] = target: T2, YqhD (Escherichia coli, UniProt Q46856); assay: Kinetic analysis of purified His-tagged YqhD; conditions: read-out: apparent Km for NADPH; purified enzyme, with furfural
T2 sequence (Q46856 1-387): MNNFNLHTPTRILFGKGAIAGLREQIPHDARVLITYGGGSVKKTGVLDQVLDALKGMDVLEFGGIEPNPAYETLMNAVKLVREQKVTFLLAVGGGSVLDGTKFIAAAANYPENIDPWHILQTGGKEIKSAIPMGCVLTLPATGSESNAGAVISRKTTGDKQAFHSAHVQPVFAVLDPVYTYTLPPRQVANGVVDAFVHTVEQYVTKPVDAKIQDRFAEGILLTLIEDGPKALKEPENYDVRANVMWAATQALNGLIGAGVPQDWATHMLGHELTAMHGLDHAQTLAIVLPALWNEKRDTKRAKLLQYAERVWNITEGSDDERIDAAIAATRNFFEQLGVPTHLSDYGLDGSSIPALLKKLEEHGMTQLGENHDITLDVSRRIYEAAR
Description: (§9) Cells were grown with IPTG to approximately 1.3 g dcw liter^−1, washed with 100 mM phosphate buffer, and lysed using MP Fast Prep-24 (MP Biomedical, Solon Ohio) and Lysing Matrix B. Crude extracts were passed through a 0.22 μm PVDF filter and further purified using a 1 mL HiTrap nickel column. Purified enzymes were dialyzed in 100 mM phosphate buffer using a Thermo Slide-A-Lyser and quantified using a Thermo BCA Protein Assay Kit. […] Apparent Kcat and apparent Km values were determined for both purified enzymes using NADPH and furfural.

[17] = target: T1, DkgA; assay: Kinetic analysis of purified His-tagged DkgA; format: biochemical; conditions: purified enzyme, with furfural; read-out: apparent Km for NADPH
Description: Both the yqhD and dkgA genes were cloned into a Novagen pET-15b vector and expressed as a His-tagged protein in E. coli BL21 (DE3). Cells were grown with IPTG to approximately 1.3 g dcw liter^−1, washed with 100 mM phosphate buffer, and lysed using MP Fast Prep-24 (MP Biomedical, Solon Ohio) and Lysing Matrix B. Crude extracts were passed through a 0.22 μm PVDF filter and further purified using a 1 mL HiTrap nickel column. Purified enzymes were dialyzed in 100 mM phosphate buffer using a Thermo Slide-A-Lyser and quantified using a Thermo BCA Protein Assay Kit. Purity of YqhD and DkgA were estimated to be greater than 90% by SDS-PAGE. […] Estimated sizes of the purified proteins were in agreement with predicted values of 43 kD and 31 kD, respectively. Apparent Kcat and apparent Km values were determined for both purified enzymes using NADPH and furfural.

[18] = target: T2, YqhD; set-up: For-[…]; His-tag (N); made in house; host or cells: E. coli BL21 (DE3); conditions: Miller et al. 2009b; read-out: apparent Km for NADPH; cited from earlier work
[19] = substrate: O=Cc1ccco1; assay: cells, lysate or membranes named; conditions: other: purified enzyme, NADPH-dependent reduction
Description: as §9

[20] = mineral salts media with 50 g liter^−1 xylose, 48 h
[21] = xylose-mineral salts medium with yeast extract (1.0 g liter^−1)

T1 sequence (Q46857 whole entry): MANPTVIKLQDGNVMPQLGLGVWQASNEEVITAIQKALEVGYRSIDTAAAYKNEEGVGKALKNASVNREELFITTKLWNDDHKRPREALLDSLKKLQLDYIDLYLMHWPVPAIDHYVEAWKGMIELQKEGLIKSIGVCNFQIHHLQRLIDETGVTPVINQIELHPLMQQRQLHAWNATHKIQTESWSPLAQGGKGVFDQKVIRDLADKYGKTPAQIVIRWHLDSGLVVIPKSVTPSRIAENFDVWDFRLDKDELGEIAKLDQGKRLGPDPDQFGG

## O=Cc1ccc(CO)o1 [5-HMF, 5-hydroxymethyl furfural]
[1]; 1.0 g l^−1 5-HMF
  effect on cell yield or ethanol yield: no detrimental effect
[1]; 2.5 g 5-HMF l^−1
  effect on ethanol production and growth: slowed
  time to completion of ethanol production and growth: 96 h
[2]
  effect on growth: completely inhibited
[3]; 1 g l^−1 5-HMF, tube cultures, 24 h
  effect on growth: partially inhibited

## CC(=O)C=O [Methylglyoxal]
[4]; LY180(pLOI4900), 0.1 mM
  effect on luciferase activity: increase luciferase activity

## N[C@@H](CS)C(=O)O [cysteine, L-cysteine]
[3]; 100 μM cysteine with 1 g l^−1 5-HMF
  restoration of growth by supplement: completely restored
[3]; 100 μM or 1000 μM cysteine with 2.5 g l^−1 5-HMF
  restoration of growth by supplement: not restored
[3]; cysteine supplements
  effect of supplement on the MIC for 5-HMF: did not increase the MIC

## O=Cc1ccco1 [furfural]
[5]
  up-regulation of yqhC, yqhD and dkgA transcripts: > 6 fold
[6]
  effect on luciferase activity: no furfural-dependent response was observed
[7]
  effect on luciferase expression: luciferase expression was not increased; also recorded: did not increase luciferase activity
[8]; 0.4 g liter^−1 furfural
  time to complete reduction of furfural: 12 h
[8]; 1.0 g liter^−1 furfural
  time to complete reduction of furfural: 18 h
[8]; furfural 0.4 g liter^−1 or 1.0 g liter^−1
  effect on growth and fermentation: virtually unaffected
[9]; 0.4 g liter^−1 furfural, 100 g liter^−1 xylose
  effect on growth and ethanol production: initial lag in growth and ethanol production
[9]; 1.0 liter^−1 furfural, 72-h incubation
  effect on growth and ethanol production: strongly inhibited
[10]
  effect on luciferase expression: luciferase expression was not increased
[11]
  in vivo rate of furfural reduction: 0.042±0.001 μmol min^−1 mg dcw^−1
[12]
  in vivo rate of furfural reduction: 0.025±0.005 μmol min^−1 mg dcw^−1
[13]; [20]
  minimal inhibitory concentration (MIC) of furfural: ~2000 µg/mL
[13]; xylose replaced with glucose
  furfural MIC: 2500 µg/mL
[13]; [21]
  furfural MIC: 2500 µg/mL
[14]; [20]
  minimal inhibitory concentration (MIC) of furfural: approximately 1.0 g liter^−1
[14]; xylose replaced with glucose
  furfural MIC: 1500 µg/mL
[14]; [21]
  furfural MIC: 2000 µg/mL
[4]; LY180(pLOI4900), furfural 1 mM, 5 mM and 10 mM, evident within 5 min
  effect on luciferase activity: dose-dependent increase in luciferase activity
[4]; LY180 carrying pPyqhD-luc, 15 minutes after addition of furfural
  effect on luciferase activity: activity was increased

## OCc1ccco1 [furfuryl alcohol]
[13]
  MIC: 15000 µg/mL (≈ 153 mM)
[14]
  MIC: 15000 µg/mL (≈ 153 mM)

## COc1cc(C=O)cc(OC)c1O [syringaldehyde]
[13]
  MIC: 2000 µg/mL (≈ 11 mM)
[14]
  MIC: 2000 µg/mL (≈ 11 mM)

## NADPH
[15]
  Km: 23 µM
[16]
  Km: 8 µM
[17]
  Km: 23 µM
[18]
  Km: 8 µM

B1: YqhD (Escherichia coli K-12) (protein)
chain: T2 sequence (Q46856 1-387)
[19]
  Km: 9000 µM
